Source: US11219607B2, “Methods for suppressing cancer-related cachexia” (Ohio State Innovation Foundation, priority 2013, dated 2022)

Assays:
[1] = tested on: MuRF1 mRNA; assay: qPCR of gastrocnemius muscle, C-26 model: MuRF1; format: in vivo, CD2F1 mice; conditions: C-26 tumor-bearing mice, 15 days after tumor cell injection, tumor-bearing/vehicle 25.8±3.9-fold, mean±S.D.
Description: (§1) Total RNA was isolated from homogenized gastrocnemius muscles (n=3/group) with TRIzol reagent (Life Technologies, Carlsbad, Calif.) and then purified using the RNAeasy Mini Kit (Qiagen, Valencia, Calif.). qRT-PCR was performed as described previously (42) by using the Bio-Rad CFX96 Real-Time PCR Detection System with iQ SYBR Green Supermix (Bio-Rad, Hercules, Calif.). RNA-seq library generation and data analysis were performed at The Ohio State University Comprehensive Cancer Center (OSUCCC) Nucleic Acid Shared Resource.
AR-42 was able to restore expression of Atrogin-1 (2.7±0.7-fold) and MuRF1 (1.1±0.2-fold) mRNA to basal levels […].

[2] = tested on: TNF; assay: Serum cytokine profiling, C-26 model: TNF; format: in vivo, CD2F1 mice; conditions: C-26 tumor-bearing mice
Description: (§2) Gastrocnemius muscles and sera were collected at day 17 post-cell injection from each treatment group (n=8/group). Muscle was submitted to Metabolon, Inc. (Durham, N.C.) for metabolomic analysis of 270 metabolic intermediates via proprietary mass spectrometry platforms. Serum was submitted to Eve Technologies (Alberta, Canada) for analysis of 32 cytokines using a mouse cytokine array (32-plex panel).
(§3) To shed light onto the mechanism by which AR-42 mediated its anti-cachectic effect, sera and gastrocnemius muscle from vehicle- or AR-42-treated tumor-free and C-26 tumor-bearing mice were used for cytokine profiling analysis and whole transcriptome shotgun sequencing (RNA-seq), respectively.

[3] = tested on: IL-6 receptor alpha chain (IL-6Rα) mRNA; assay: qPCR of skeletal muscle, C-26 model: IL-6Rα; format: in vivo, CD2F1 mice; conditions: muscle of C-26 tumor-bearing mice; tumor-bearing/vehicle 13±1.4-fold
Description: as §1
Cytokine profiles. […] AR-42 reduced IL-6 and LIF levels by 56% and 88%, respectively, in tumor-bearing mice (IL-6, 102±38 pg/ml; LIF, 3.8±1.6 pg/ml) compared to the vehicle-treated counterparts. In light of the ability of AR-42 to blunt cachexia-associated increases in IL-6, we examined the effect of AR-42 on intramuscular mRNA levels of IL-6 receptor alpha chain (IL-6Rα). […] AR-42 reduced this cachexia-induced increase by 85% (2.0±0.2-fold; n=10)(FIG. 5, lower).

[4] = tested on: C-26 tumor-bearing mice; assay: Forelimb grip strength measurement, C-26 delayed treatment; format: in vivo, CD2F1 mice; conditions: all drug-treated groups (start day 6, 10, 12); day 15 and 16
Description: Forelimb grip strength was measured mice using a Digital Grip Strength Meter (Columbus Instruments, Columbus, Ohio). Five measurements were taken from each mouse, the average of which was designated as the mouse's grip strength.
To measure forelimb grip strength, each mouse was held by the base of its tail and lowered over the apparatus until its forepaws grasped the pull bar. The mouse was then gently pulled horizontally in a straight line away from the grip meter until the mouse released the bar, and the maximum force attained was recorded. Five measurements were taken from each mouse, the average of which was designated as the mouse's grip strength.

[5] = tested on: IL-6; assay: Serum cytokine profiling, C-26 model: IL-6; format: in vivo, CD2F1 mice; conditions: C-26 tumor-bearing mice, day 17; tumor-bearing/vehicle 230±105, tumor-free/vehicle 2.9±1.3
Description: as §2, §3

[6] = tested on: global gene expression in muscle of C-26 tumor-bearing mice; assay: RNA-seq of gastrocnemius muscle, C-26 model; format: in vivo, CD2F1 mice
Description: as §1
Data analysis was conducted by using SAS 9.3 software (SAS, Inc; Cary, N.C.). For the experiments with repeated measures, data were analyzed by mixed effect models, incorporating observational dependencies across each subject. For other experiments involving independent groups, data were analyzed by ANOVA. For the time-to-event experiment (FIG. 2B), the difference in survival functions were compared by log-rank tests. Multiplicities were adjusted by Holm's method to control the overall family-wise error rate at 0.05. RNA-seq data were analyzed by using Ingenuity Pathway Analysis (IPA) software (Ingenuity Systems, Redwood City, Calif.). Only genes with >4-fold change and P<0.05 were selected for pathway analysis. […]
RNA quality was assessed on an Agilent 2100 Bioanalyzer using a Pico RNA chip and the input total RNA amount was assessed using Agilent Qubit RNA assay. […] The resultant libraries were assessed for quantity and quality using Agilent Qubit DNA assay and with PerkinElmer Labchip DNA GX analysis, respectively. All libraries were mixed in equal proportions generating pools of samples that would yield approximately 40 million passed filter reads when sequenced on Illumina HiSeq 2500 sequencer. The raw sequencing data from the Illumina HiSeq CASAVA pipeline were assessed for quality using FastQC, RNASeQC and RSeQC software. […]

[7] = tested on: LLC tumor-bearing mice; assay: LLC mouse model of cachexia, hindlimb muscle mass; format: in vivo; conditions: LLC tumor-bearing C57BL/6 mice, 50 mg/kg p.o. every other day, day 6 to day 20
Description: In another aspect, subcutaneous tumors were established in male C57BL/6 mice (approximately 6 weeks of age; Harlan) by injection of 0.5×10^6 LLC cells into the right flank. Treatment with AR-42 and vehicle was performed as for the C-26 model beginning 6 days after cell injection. In both models, body weights and food consumption were monitored daily and tumor size was measured no less than every two days. Mice were fasted for 2 hours prior to sacrifice, at which time, hind limb muscles, heart, spleen, epididymal fat, and blood were collected and the weights of the solid tissues were measured. Muscle samples were frozen in liquid nitrogen-chilled 2-methylbutane and then stored at −80° C. until analysis.
(§4) To confirm that the anti-cachectic activity of AR-42 was not specific to the C-26 model, it was also evaluated in the LLC model. C57BL/6 mice bearing subcutaneous LLC tumors were treated with AR-42 (50 mg/kg, p.o., every other day) starting on day 6 after tumor cell injection, and continuing until day 20 when hind limb muscles were harvested at sacrifice.
as §4, with “subcutaneous […]” for “subcutaneous”

Structure (SMILES): CC(C)[C@H](C(=O)Nc1ccc(C(=O)NO)cc1)c1ccccc1 [AR-42, (S)—N-hydroxy-4-(3-methyl-2-phenylbutanamido)benzamide]
- MuRF1 mRNA level relative to tumor-free/vehicle control [1]: 1.1±0.2 fold
- effect on serum TNF levels [2]: no effect
- IL-6Rα mRNA level compared to tumor-free mice [3]: 2.0±0.2 fold
- forelimb muscle strength (handgrip dynamometry) relative to vehicle-treated control [4]: helped preserve forelimb muscle strength
- serum IL-6 level [5]: 102 ± 38 pg/mL
- number of downregulated genes (4-fold or greater), AR-42- versus vehicle-treated tumor-bearing mice [6]: 301 genes
- number of upregulated genes (4-fold or greater), AR-42- versus vehicle-treated tumor-bearing mice [6]: 376 genes
- number of genes with 4-fold or greater differential expression, AR-42- versus vehicle-treated tumor-bearing mice ([6]; total): 677 genes
- tibialis anterior mass, % of non-cachectic control ([7]; vehicle 80.3±4.0%): 93.4±3.9%
- gastrocnemius mass, % of non-cachectic control ([7]; vehicle 81.7±3.7%): 92.2±3.5%
- quadriceps mass, % of non-cachectic control ([7]; vehicle 84.4±4.6%): 93.4±4.8%
